Like-named read-outs stand apart in the source and are kept apart here.
Experiments:
PRMT5 [1] = target: T1, PRMT5 (Homo sapiens, UniProt O14744); experiment: PRMT5 enzymatic activity inhibition assay (radioactive methylation, 3H-SAM to H4R3 peptide); assay type: biochemical
T1 construct: The final concentrations of PRMT5 enzyme: 2.5 nm/L
Procedure: The PRMT5 enzymatic activity assay was conducted by Chempartner Life science. The final concentrations of PRMT5 enzyme: 2.5 nm/L; ^3H-SAM: 0.3 μM/L; histone peptide (H4R3S1ac): 0.3 μM/L. The protocol of radioactive methylation assay was as follows: (1) Prepare 1× assay buffer (modified Tris Buffer). (2) Transfer compounds to assay plate using Echo in 100% DMSO. DMSO’s final fraction is 1%. (3) Prepare enzyme and ^3H-SAM Mix solution in 1× assay buffer. (4) Prepare substrate (peptide sequence Ac-[…]-K(Biotin)) solution in 1× assay buffer. (5) Transfer 15 μL of enzyme and ^3H-SAM solution to assay plate. (6) Incubate at room temperature for 60 min. (7) Add 10 μL of substrate solution to each well to start the reaction, and for low control transfer 10 μL of 1× assay buffer. (8) Incubate at room temperature for 120 min. (9) Add cold SAM in 1× assay buffer to make the stop mix. (10) Stop reaction with addition of 5 µL per well of stop solution. (11) Transfer 25 µL of volume per well to Flash plate from assay plate. (12) Incubate for 1 h minimum at room temperature.
(13) Read plate on Micro beta. (14) Data process—get the data in Excel to obtain inhibition values using Equation (1).Inhibitory rate% = (Max-Signal)/ (Max-Min) × 100(1)
Fit the data in XL-Fit to obtain IC50 values using Equation (2): Y = Bottom + (Top-Bottom)/(1 + (IC50/X) […]) Y is% inhibition and X is compound concentration(2)

MV-4-11 cells = experiment: Anti-proliferation CellTiter-Glo assay, MV-4-11; assay type: cell-based; conditions: Homo sapiens, MV4-11, 12th day
From the text: (§1) MV-4-11 and MDA-MB-468 cell lines were used to evaluate the anti-proliferative activities of the selected target compounds (CellTiter-Glo assay), and AML-12 hepatocytes were selected to evaluate the toxicity of the compounds.
(§2) MV-4-11 and MDA-MB-468 cell line were derived from Cell Resources Center of Shanghai Academy of life sciences (Shanghai, China). AML-12 cell line was brough from Nanjing Lixing Biotechnology Co. Ltd. (Nanjing, China). MDA-MB-468 cell line was maintained in Dulbecco’s Modified Eagle Medium (DMEM, KeyGEN Bio) that contained 10% FBS (Biochanel, China), MV-4-11 cell line was maintained in Iscove’s Modified Dulbecco Medium containing; 10% FBS (Biochannel, China), AML-12 cell line was maintained in DMEM/F-12 (1:1) (KeyGEN, China; 1% ITS Liquid Media Supplement (Sigma, America), dexamethasone 40 ng/mL (Sigma, USA) and 10% FBS (Biochannel, China). All cells were grown in a humidified incubator containing 5% carbon dioxide at 37 ℃. All compounds were dispersed in dimethyl sulfoxide (Sigma), the concentration of the reserve solution was 10 mmol/L and the solution was stored in a refrigerator at −20 ℃. SDMA (# 13222S), β- Tubulin (#2146S) and horseradish peroxidase (HRP)-linked secondary antibodies anti-rabbit or anti-mouse IgG were purchased from Cell Signaling Technology (CST), and the anti-PRMT5 (ab109451) antibody was purchased from ABCAM.
(§3) The antiproliferative activities of compounds in vitro were measured by CellTiter-Glo (CTG) assay (Promega, America). In linear/log-phase growth, cultured MV-4-11 cells were split to with seeding density of 2 × 10^5 cells/mL in 1–20 mL of media, depending on the yield required at the end of the growth period. At the conclusion of each treatment period, cells were harvested by centrifugation (4 min, 1000 rpm), and cell pellets were rinsed twice with PBS before being research further processing. Afterwards, cells were plated in 96-well plates with a density of 500 cells/well in […] media. After six hours incubation, compounds treatment was performed. Half of the culture medium was moved and re-plated with fresh media with fresh compound after 6 days. On the 12th day, Cell Titer-Glo Luminescent Cell Viability assays (Promega, USA) were used to determine the viable cell number, and luminescence was recorded using the Envision Multilabel Plate Readers (PerkinElmer). The concentration dependence curves were determined at each time point using GraphPad Prism 8.0 software.

MDA-MB-468 cells = experiment: Anti-proliferation CellTiter-Glo assay, MDA-MB-468; assay type: cell-based; conditions: Homo sapiens
From the text: as §1, §2, §3

[2] = Pharmacokinetic study in ICR mice; assay type: in vivo, mouse; conditions: for MRT last: read-out: MRT0-t; for MRT inf: read-out: MRT0-∞
Procedure: The pharmacokinetic properties were evaluated by PRECEDO. China. SPF ICR mice (18–20 g, 6–8 weeks, n = 3 per group) were used to carried out pharmacokinetics determinations. […] Colleting samples at different times after treatment. Plasma was obtained from the blood samples by centrifugation (6000 rpm for 3 min at 2–8 °C) and stored at −20 °C. The LC-MS/MS (Shimadzu, API 4000) method was used to determine the concentration of each animal at each time point.

sDMA = experiment: Western blot of sDMA in MV-4-11 xenograft tumors; assay type: in vivo, BALB/c nude mice; conditions: 10 mg/kg, 28 days
Procedure: Subsequently, we investigated the effects of compound 20 on the expression of the PRMT5 substrate sDMA in vivo (Figure 8). Similarly, the expression of sDMA was decreased after the treatment of compound 20, which was in line with its antitumor activity in vivo.
Tumor tissue was grinded by a cryo-grinder before being lysed with an RIPA buffer, protease inhibitors (PMSF, MCE), and phosphatase cocktails II (MCE). The mixture was centrifuged for 15 min (12,000 rpm). The following steps were the same as with cells.
(A) Western blot analysis of sDMA as indicated in MV-4-11 xenograft tumors treated with the indicated compounds for 28 days. (B) The relative strength of sDMA signal on the Western blots was measured by densitometry. The data are shown as the mean ± SD of three independent experiments. * p < 0.05 vs. control.

PRMT5 [3] = target: T1, PRMT5; experiment: Cellular thermal shift assay (CETSA) in MV-4-11 cells; assay type: cell-based
Procedure: The cellular thermal shift assay and the isothermal dose response were run as previously described. Briefly, MV-4-11 cells were collected and centrifugated (4 min, 1000 rpm) and washed twice with PBS. Then the cells were divided three equal parts with seeding density of 1 × 10^6 cells/mL into 60 mm cell culture dish in three mL media. The cell suspension was incubated with DMSO and compounds for 18 h at 37 °C, 5% CO2, and 85% RH.
After incubation, cells were collected and washed twice with PBS. Then they divided the ten parts into transferred thin-walled PCR tubes (0.2 mL, Axygen, Union City, CA, USA) in 50μL PBS. Cells were subjected to 3 min of heat in 96-well thermal cycler (Eppendorf Mastercycler nexus GSX1, Düsseldorf, German) at temperatures of 37, 46, 49, 52, 55, 58, 61, 64, 67 and 70 °C. After heating, cells were left to cool for 3 min and then snap frozen in −80 °C ultra-low temperature freezer overnight. The next day, cells were subjected to 3 rapid freeze thaws with 15 s of vortexing after each thaw. […]
(B) The relative strength of PRMT5 signal on the Western blots was measured by densitometry. […] All data were analyzed using a Boltzmann sigmoidal fit. […]

[4] = ICR, mouse, plasma, iv, 2 mg/kg, male mice, Table S1, mean ± SD
[5] = ICR, mouse, plasma, oral gavage, 10 mg/kg, male mice, Table S2, mean
[6] = male, ICR, mouse, plasma, iv, 2 mg/kg, ICR mouse, Table 4
[7] = male, ICR, mouse, plasma, iv, 2 mg/kg, male mice, Table S1, mean ± SD
[8] = male, ICR, mouse, plasma, po, 10 mg/kg, ICR mouse, Table 4
[9] = male, ICR, mouse, plasma, po, 10 mg/kg, oral gavage, male mice, Table S2, mean

T1 sequence (O14744 whole entry): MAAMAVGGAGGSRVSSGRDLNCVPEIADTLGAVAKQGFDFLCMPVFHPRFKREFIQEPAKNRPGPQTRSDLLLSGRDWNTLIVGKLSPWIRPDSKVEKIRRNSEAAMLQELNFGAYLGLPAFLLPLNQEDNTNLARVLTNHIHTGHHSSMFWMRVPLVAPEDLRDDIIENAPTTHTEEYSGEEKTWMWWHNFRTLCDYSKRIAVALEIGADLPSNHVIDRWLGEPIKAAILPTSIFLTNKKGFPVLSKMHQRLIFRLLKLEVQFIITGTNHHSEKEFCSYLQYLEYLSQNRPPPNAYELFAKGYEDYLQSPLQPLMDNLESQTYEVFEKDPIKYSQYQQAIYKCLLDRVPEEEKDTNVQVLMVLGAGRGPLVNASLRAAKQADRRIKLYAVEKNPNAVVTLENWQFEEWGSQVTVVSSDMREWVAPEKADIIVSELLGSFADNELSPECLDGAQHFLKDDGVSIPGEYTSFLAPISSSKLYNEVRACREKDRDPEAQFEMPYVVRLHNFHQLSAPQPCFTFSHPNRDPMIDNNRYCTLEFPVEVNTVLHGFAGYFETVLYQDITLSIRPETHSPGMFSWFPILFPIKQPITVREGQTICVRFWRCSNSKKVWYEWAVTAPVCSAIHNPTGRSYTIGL
T1 sequence (Q9BQA1 whole entry partner): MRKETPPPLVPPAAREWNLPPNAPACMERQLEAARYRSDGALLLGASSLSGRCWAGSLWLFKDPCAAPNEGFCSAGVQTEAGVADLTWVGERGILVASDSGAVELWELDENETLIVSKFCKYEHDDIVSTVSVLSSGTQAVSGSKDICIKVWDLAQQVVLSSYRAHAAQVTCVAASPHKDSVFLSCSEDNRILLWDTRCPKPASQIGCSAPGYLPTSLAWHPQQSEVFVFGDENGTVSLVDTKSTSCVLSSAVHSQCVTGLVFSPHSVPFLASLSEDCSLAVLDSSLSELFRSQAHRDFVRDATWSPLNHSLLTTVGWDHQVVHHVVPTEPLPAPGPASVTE

Question: For O=C(NC[C@H](O)CN1CCc2ccccc2C1)c1ccc2c(c1)c1c(n2CC2COC2)CCCC1 [Compound 20, (S)-N-(3-(3,4-dihydroisoquinolin-2(1H)-yl)-2-hydroxypropyl)-9-(oxetan-3-ylmethyl)-2,3,4,9-tetrahydro-1H-carbazole-6-carboxamide], which IC50 (PRMT5 [1]) is on record?
Answer: 4.2 ± 1.3 nM

Question: What about the inhibition at 0.1 µM (PRMT5 [1]; 100 nM compound, read-out: Inhibition Rate% @100 nM) of the same compound?
Answer: 83 ± 12%

Question: And the GI50 (MV-4-11 cells)?
Answer: 4.6 ± 0.9 nM

Question: What about the GI50 (MDA-MB-468 cells) of the same compound?
Answer: 9.9 ± 6.8 nM

Question: What about the AUC(0-t) [2, 4] of the same compound?
Answer: 1030 ± 68.5 ng·h/mL

Question: And the C0 [2, 4]?
Answer: 1940 ± 330 ng/mL

Question: And the Tmax [2, 4]?
Answer: 4.8 min

Question: What about the half-life [2, 4] of the same compound?
Answer: 29.4 ± 13.8 min

Question: What about the MRT last [2, 4] of the same compound?
Answer: 26.4 ± 3 min

Question: And the MRT inf [2, 4]?
Answer: 27 ± 3 min

Question: What about the AUC(0-t) [2, 5] of the same compound?
Answer: 728 ng·h/mL

Question: And the Tmax [2, 5]?
Answer: 15 min

Question: And the bioavailability [2, 5]?
Answer: 14.5%

Question: What about the half-life [2, 5] of the same compound?
Answer: 364 min

Question: And the MRT last [2, 5]?
Answer: 73.2 min

Question: And the MRT inf [2, 5]?
Answer: 115 min

Question: What about the T1/2 ([2]; iv, 2 mg/kg, ICR mouse, Table 4) of the same compound?
Answer: 29.4 min

Question: And the AUC(0-inf) [2, 6]?
Answer: 1030 ng·h/mL

Question: And the Cmax [2, 6]?
Answer: 1690 ng/mL

Question: And the clearance [2, 6]?
Answer: 32.4 mL/min/kg

Question: What about the Vd ([2]; male, ICR, mouse, plasma, iv, 2 mg/kg, iv, 2 mg/kg, ICR mouse, Table 4, read-out: Vss) of the same compound?
Answer: 1.35 L/kg

Question: What about the Vd ([2]; male, ICR, mouse, plasma, iv, 2 mg/kg, iv, 2 mg/kg, male mice, Table S1, mean ± SD, read-out: Vz) of the same compound?
Answer: 1.35 ± 0.556 L/kg

Question: And the AUC(0-inf) [2, 7]?
Answer: 1030 ± 64.8 ng·h/mL

Question: And the Cmax [2, 7]?
Answer: 1690 ± 133 ng/mL

Question: What about the clearance [2, 7] of the same compound?
Answer: 32.4 mL/min/kg

Question: What about the AUC(0-inf) [2, 8] of the same compound?
Answer: 747 ng·h/mL

Question: What about the Cmax [2, 8] of the same compound?
Answer: 1270 ng/mL

Question: And the AUC(0-inf) [2, 9]?
Answer: 747 ng·h/mL

Question: And the Cmax [2, 9]?
Answer: 1270 ng/mL

Question: And the bioavailability ([2]; male, plasma, po 10 mg/kg vs iv 2 mg/kg, ICR mouse, Table 4)?
Answer: 14.5%

Question: And the T1/2 ([2]; po, 10 mg/kg, ICR mouse, Table 4)?
Answer: 364 min

Question: And the “expression of sDMA in vivo” value (sDMA)?
Answer: decreased

Question: What about the “PRMT5 melting point increase compared to DMSO vehicle” value (PRMT5 [3]; 1 μM, 18 h) of the same compound?
Answer: 7.2 °C

Question: What about the “Inhibition of PRMT5 degradation at 58 °C” value (PRMT5 [3]; isothermal dose response, 58 °C) of the same compound?
Answer: dose-dependent manner
